Holding throughout (assay): Kinetic parameters determination (HPLC monitoring of MLC consumed and CoA produced)
Data set [1] concerns the target T1, Tsukamurella pulmonis phloroglucinol synthase PhlD_Tpu WT, wild type, SEQ ID NO: 1 (Tsukamurella pulmonis, UniProt A0A1H1FBR5).
T1 sequence (A0A1H1FBR5 1-390): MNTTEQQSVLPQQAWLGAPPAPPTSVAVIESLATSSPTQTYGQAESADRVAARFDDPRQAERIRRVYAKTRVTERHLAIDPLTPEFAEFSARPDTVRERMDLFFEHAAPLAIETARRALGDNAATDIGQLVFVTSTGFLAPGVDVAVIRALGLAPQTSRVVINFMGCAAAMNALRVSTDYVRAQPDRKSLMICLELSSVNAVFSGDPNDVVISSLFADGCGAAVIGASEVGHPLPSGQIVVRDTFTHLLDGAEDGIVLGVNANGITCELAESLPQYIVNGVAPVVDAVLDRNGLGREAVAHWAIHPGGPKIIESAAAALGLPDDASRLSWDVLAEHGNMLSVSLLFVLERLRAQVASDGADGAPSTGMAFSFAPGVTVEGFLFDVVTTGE
In kind it is biochemical. Conditions: MLC 5-100 µM, sodium phosphate buffer 50 mM pH 7, 30°C, 0.5 µM pure enzyme. As to the method:
(§1) The selected PhlD_Tpu sequences are amplified from the yeast expression plasmid and fused with a 6xHis tag encoded at the C-terminus. This fusion is inserted into the pET26b(+) plasmid, between the XhoI and NdeI restriction sites (as shown in Figure 4), with the […] controlling its expression. The recombinant plasmid is used to transform E. coli BL21(DE3) competent cells, which are grown in LB medium (10 g/L NaCl, 10 g/L Tryptone, 5 g/L yeast extract) at 37° C with shaking, in a final volume of 500 mL. The expression of the recombinant plasmid is initiated by adding 0.1 mM of IPTG when the OD600nm reaches 0.4-0.5. The cells are then allowed to grow overnight at 20°C until they reach an OD600nm of approximately 1.5-1.6.
(§2) E. coli BL21(DE3) cells transformed as described in paragraph 1.2.4 above were disrupted by Fast-Prep at a speed setting of 6 m/sec for 3 cycles of 45 sec. The supernatant is filtered on a 0.45 µm membrane before being applied to a 1 mL Talon® Resin column. The column is washed first with 10 column volumes of sodium phosphate buffer (50 mM, pH7; NaCl 100 mM) and with 10 column volumes of sodium phosphate buffer with 10 mM of imidazole ([…], Phosphate buffer 50 mM, 500 mM imidazole pH 8.5; 100mM NaCl). Protein elution is performed using 150 mM imidazole in sodium phosphate buffer (50 mM pH 7, NaCl 100mM). Collected fractions are pooled and diafiltrated using 5 volumes of sodium phosphate buffer (50 mM pH 7, NaCl 100mM) using a 30 kDa diafiltration unit (Amicon ®Ultra, Merck) before reducing the volume to 500 µL.
(§3) The concentrate is applied on a gel filtration column (S200 TRICORN 10/300 Superdex 200). Elution is performed with an isocratic gradient of sodium phosphate buffer (50 mM pH 7, NaCl 100mM). The purity of the various fractions obtained is checked by SDS-PAGE (Mini-PROTEAN TGX Stain-Free Gels, Bio Rad)
(§4) In order to access the kinetic parameters of PhlD_Tpu, the concentrations of MLC consumed and CoA produced were monitored by HPLC. The experiments were run for 120 sec and only the linear part of CoA variation with time was used to calculate initial velocity. The experiments were carried using a range of MLC concentrations (5-100 µM) in sodium phosphate buffer (50 mM pH 7), at 30°C, and with 0.5 µM of pure enzyme. At 10, 20, 30, 50, 60 and 120 sec, 100 µL aliquots of the reaction mixture were quenched with 10 µL of 10% (v/v) formic acid and kept at room temperature before HPLC analysis. With these conditions, the CoA production increased linearly with time until 50 sec. Table 7: HPLC conditions for MLC and CoA separation and quantification.

Data set [2] deals with Tsukamurella pulmonis phloroglucinol synthase PhlD_Tpu variant M27 (A124P, A154P, S177A, S236P, E268Q, E271R, A298D), SEQ ID NO: 3. The data set is classed as biochemical. As to the method:
as §1, §2, §3, §4

In data set [3] the test system is CC(C)(COP(=O)(O)OP(=O)(O)OC[C@H]1O[C@@H](n2cnc3c(N)ncnc32)[C@H](O)[C@@H]1OP(=O)(O)O)[C@@H](O)C(=O)NCCC(=O)NCCSC(=O)CC(=O)O. The data set is classed as biochemical, Tsukamurella pulmonis. Conditions: other: MLC 5-100 µM, sodium phosphate buffer 50 mM pH 7, 30°C, 0.5 µM pure enzyme. As to the method:
as §1, §2, §3, §4

Substrate in data set [4]: CC(C)(COP(=O)(O)OP(=O)(O)OC[C@H]1O[C@@H](n2cnc3c(N)ncnc32)[C@H](O)[C@@H]1OP(=O)(O)O)[C@@H](O)C(=O)NCCC(=O)NCCSC(=O)CC(=O)O
In kind it is biochemical, Tsukamurella pulmonis. Conditions: other: MLC 5-100 µM, sodium phosphate buffer 50 mM pH 7, 30°C, 0.5 µM pure enzyme. As to the method:
as §1
E. coli BL21(DE3) cells transformed as described in paragraph 1.2.4 above were disrupted by Fast-Prep at a speed setting of 6 m/sec for 3 cycles of 45 sec. The supernatant is filtered on a 0.45 µm membrane before being applied to a 1 mL Talon® Resin column. […]
In order to access the kinetic parameters of PhlD_Tpu, the concentrations of MLC consumed and CoA produced were monitored by HPLC. […] Table 7: HPLC conditions for MLC and CoA separation and quantification.
The source holds these as a separate data set.

In general, kcat refers to the number of substrate molecules converted per active site and unit of time at saturation. For `CC(C)(COP(=O)(O)OP(=O)(O)OC[C@H]1O[C@@H](n2cnc3c(N)ncnc32)[C@H](O)[C@@H]1OP(=O)(O)O)[C@@H](O)C(=O)NCCC(=O)NCCSC(=O)CC(=O)O` [malonyl-CoA], the turnover number (kcat) in data set [1] turned out to be 0.38 s⁻¹. For the same molecule, the “kcat reduced by a factor (M27 vs PhlD_Tpu WT)” value in data set [2] (factor of reduction relative to PhlD_Tpu WT) was 1.3. In data set [2] (relative to PhlD_Tpu WT), the “KM relative to PhlD_Tpu WT” value is “twice lower” and the “catalytic efficiency, times higher compared to PhlD_Tpu WT” value was 1.6.
Usually Km stands for the substrate concentration at which the rate is half of its maximum. In general, kcat/Km refers to the second-order rate constant that governs catalysis at low substrate concentration. For “Tsukamurella pulmonis phloroglucinol synthase PhlD_Tpu variant M27 (A124P, A154P, S177A, S236P, E268Q, E271R, A298D), SEQ ID NO: 3 (Tsukamurella pulmonis; A124P/A154P/A298D/E268Q/E271R/S177A/S236P)”, in data set [3], the Km came to 4.9 ± 0.544 µM, the kcat stood at 0.28 ± 0.06 s⁻¹ and the specificity constant (kcat/Km) stood at 0.057 s⁻¹ µM⁻¹.

B1: Tsukamurella pulmonis phloroglucinol synthase PhlD_Tpu WT, wild type, SEQ ID NO: 1 (Tsukamurella pulmonis) (protein)
chain: MNTTEQQSVLPQQAWLGAPPAPPTSVAVIESLATSSPTQTYGQAESADRVAARFDDPRQAERIRRVYAKTRVTERHLAIDPLTPEFAEFSARPDTVRERMDLFFEHAAPLAIETARRALGDNAATDIGQLVFVTSTGFLAPGVDVAVIRALGLAPQTSRVVINFMGCAAAMNALRVSTDYVRAQPDRKSLMICLELSSVNAVFSGDPNDVVISSLFADGCGAAVIGASEVGHPLPSGQIVVRDTFTHLLDGAEDGIVLGVNANGITCELAESLPQYIVNGVAPVVDAVLDRNGLGREAVAHWAIHPGGPKIIESAAAALGLPDDASRLSWDVLAEHGNMLSVSLLFVLERLRAQVASDGADGAPSTGMAFSFAPGVTVEGFLFDVVTTGE
On to B1, for which the Km in data set [4] is on record as 10.52 µM.
